# Data from patent US9066516B2, “Uses of thaxtomin and thaxtomin compositions as herbicides” (priority 2008, dated 2015).
# Tests used:
# Format in all cases: in vivo
# [1] = tested on: corn plants (Zea mays var. Sunglow); assay: Pot study, phytotoxicity on corn (Example 1); conditions: spray 0.125-1.0 mg thaxtomin A/mL, three weeks after treatment
# Method: In a pot study test in greenhouse conditions, 6-inch corn plants (Zea mays var. Sunglow) were sprayed with increasing concentrations of thaxtomin A mixed in a carrier 4% ethanol, 0.02% polysorbate 60 POE (20) sorbitan monostearate solution. The spraying solutions contained 0.125, 0.25, 0.5 and 1.0 mg thaxtomin A/mL, and the plants are sprayed until total coverage. Each treatment was done in three replicates, and a control solution consists of water with 4% ethanol and 0.02% polysorbate 60 POE (20) sorbitan monostearate as a surfactant. Prior to and after treatments, plants are grown in a greenhouse under artificial lights (12-h light/dark cycle) at 25° C.
# Plants are evaluated in one-week intervals starting at 7 days after treatment.
# [2] = tested on: small-flower umbrella sedge; assay: Field study, 1-sq foot plots (Example 5); conditions: 14 days after treatment
# Method: (§1) The combined effect of thaxtomin A and two commercial herbicides (Bipyribac-sodium formulated as Regiment and Lemongrass oil formulated as GreenMatch EX) on small-flower umbrella sedge and watergrass is tested in a field study using small (1-sq foot) plots. All single product treatments and tank mix combinations were sprayed at 57 gal per acre. Means in each column marked with the same letter in Table 2 are not statistically different from each other at p<0.05
# watergrass = assay: Field study, 1-sq foot plots (Example 5); conditions: 14 days after treatment
# Method: as §1
# redstem; Ammania spp. = assay: Greenhouse study thaxtomin A / sarmentine (Example 9); conditions: 25 days after treatment
# Method: (§2) A strain of S. acidiscabies was grown in oat bran broth for 5 days (25° C., 200 rpm). The whole cell broth was extracted using XAD resin, and the dried crude extract was resuspended in 4% ethanol and 0.2% non-ionic surfactant at a concentration of 10 mg/mL. The diluted extracts containing 0.2 and 0.4 mg thaxtomin A per mL were tested on three weed species (redstem; Ammania spp., smallflower umbrella sedge; Cyperus difformis and sprangletop: Leptochloa uninervia). Other treatments included sarmentine at 2.5 and 5.0 mg/mL, and a combination treatment containing 0.2 mg thaxtomin A and 2.5 mg sarmentine per mL. Each treatment was applied in three replicates. Treated plants were kept in a greenhouse under 12 h light/12 h dark conditions.
# [3] = tested on: smallflower umbrella sedge; Cyperus difformis; assay: as above; conditions: Thaxtomin A 0.2 mg/mL; 25 days after treatment
# Method: as §2
# [4] = tested on: sprangletop: Leptochloa uninervia; assay: as above; conditions: Thaxtomin A 0.2 mg/mL; 25 days after treatment
# Method: as §2
# Bluegrass (Poa annua) [5] = assay: Pre-emergence test of MBI-005, lab & field (Example 12); conditions: pre-emergent; note: ranges in brackets are in %
# Method: (§3) To further describe the spectrum of pre-emergence activity, tests were conducted in laboratory and field conditions. In laboratory testing, 35 seeds were placed on a ring of blotter paper inside a 3 cm petri dish and supplied with 4 ml of MBI-005 (≦0.1 mg MBI-005/ml). Water was used as a negative control and oryzalin applied as a positive control. Petri dishes were randomly placed in a growth room at 25° C. and 50% RH. Treatments were replicated three times and germinated seeds were counted 7 and 14 days after application; water was added as necessary to maintain moisture levels inside each petri dish.
# (§4) In field testing, field soil containing weed seeds were treated with 38.2 L MBI-005/ha at a spray volume of 280 L/ha using a CO2 sprayer with flat fan nozzles. Treatments, including water as the negative control and Gallery as the positive control, were replicated four times and applied twice at a four week interval. Treatments were evaluated visually as % cover and above-ground fresh weights per container were taken.
# [6] = tested on: Crabgrass (Digitaria sanguinalis); assay: as above; conditions: pre-emergent; note: ranges in brackets are in %
# Method: as §3, §4
# [7] = tested on: Arrowhead (Sagittaria montevidensis); assay: Post-emergence test of MBI-005, field (Example 13)
# Method: (§5) In field testing, field soil containing weeds at the 1-5 leaf stage were treated with 38.2 L MBI-005/ha at a spray volume of 374 L/ha. Treatments, including water as the negative control and WeedBGon or Preen Broadleaf as the positive control, were replicated four times and applied twice at a four week interval. The positive control on Late watergrass, Ricefield Bulrush, Smallflower sedge and Arrowhead was an herbicide containing as active ingredient 2,4-D and an organosilicone surfactant was added to MBI-005. Treatments were assessed for % control and % ground cover.
# Bluegrass (Poa annua) [8] = assay: Post-emergence test of MBI-005, field (Example 13)
# Method: as §5
# [9] = tested on: Clover (Trifolium hirtum); assay: Post-emergence test of MBI-005, field (Example 13)
# Method: as §5
# [10] = tested on: Common chickweed (Stellaria media); assay: Post-emergence test of MBI-005, field (Example 13)
# Method: as §5
# [11] = tested on: Common groundsel (Senecio vulgaris); assay: Post-emergence test of MBI-005, field (Example 13)
# Method: as §5
# [12] = tested on: Common yellow oxalis (Oxalis pes-caprae); assay: Post-emergence test of MBI-005, field (Example 13)
# Method: as §5
# Eclipta (Eclipta alba) = assay: Post-emergence test of MBI-005, field (Example 13)
# Method: as §5
# [13] = tested on: Flexuous bittercress (Cardamine flexuosa); assay: Post-emergence test of MBI-005, field (Example 13)
# Method: as §5
# [14] = tested on: Hairy bittercress (Cardamine hirsuta); assay: Post-emergence test of MBI-005, field (Example 13)
# Method: as §5
# [15] = tested on: Henbit (Lamimum amplexicaule); assay: Post-emergence test of MBI-005, field (Example 13)
# Method: as §5
# [16] = tested on: Late watergrass (Echinochloa phyllopogon); assay: Post-emergence test of MBI-005, field (Example 13)
# Method: as §5
# [17] = tested on: Marsh watercress (Rorippa islandica); assay: Post-emergence test of MBI-005, field (Example 13)
# Method: as §5
# [18] = tested on: Ricefield bullrush (Scirpus mucronatus); assay: Post-emergence test of MBI-005, field (Example 13)
# Method: as §5
# [19] = tested on: Velvetleaf (Abutilon theophrasti); assay: Post-emergence test of MBI-005, field (Example 13)
# Method: as §5
# crabgrass = assay: Post-emergent MBI-005 + Chelated Fe on crabgrass (Example 16); conditions: 15 DAT
# Method: Ten seedlings in 2.5 cm square pots containing plant growth mix were sprayed with two suboptimal rates of MBI-005, 14.49 mg/mL of Chelated Fe, or a combination thereof, at a volume of 40 gal/A using a cabinet track sprayer. Negative controls were sprayed with water. Pots were randomly placed in a growth room at 25° C. and 50% RH, and watered as necessary. Treatments were replicated five times and evaluated at 7 and 15 days for visual % damage, with 0% indicating no damage and 100% indicating plant death.
# Synergy was calculated as the ratio of observed (E) to expected (E/Ee) percent control using Colby's formula.
compound,measurement,setting,value
CN1C(=O)[C@](O)(Cc2cccc(O)c2)N(C)C(=O)[C@@H]1Cc1c[nH]c2cccc([N+](=O)[O-])c12 [thaxtomin A],phytotoxicity,[1],no phytotoxicity is observed
same,Sedge control (%),[2]; Thaxtomin 0.25 mg/mL,95a %
same,Sedge control (%),[2]; Thaxtomin 0.5 mg/mL,100a %
same,Watergrass control (%),watergrass; Thaxtomin 0.25 mg/mL,5d %
same,Watergrass control (%),watergrass; Thaxtomin 0.5 mg/mL,5d %
same,Control of redstem (%),redstem; Ammania spp.; Thaxtomin A 0.2 mg/mL,5.0b %
same,Control of redstem (%),"redstem; Ammania spp.; Thaxtomin A 0.4 mg/mL, *stunted",11.7c* %
same,Control of sedge (%),[3],48.3b %
same,Control of sprangletop (%),[4],8.3ab %
same,Rating at 0.1 mg/ml (Reduction of Germination),Bluegrass (Poa annua) [5],++++ (95-100)
same,Rating at 0.1 mg/ml (Reduction of Germination),[6],++++ (95-100)
same,Rating at 1 mg/ml (Post-Emergence % control),[7],++++ (91-100)
same,Rating at 1 mg/ml (Post-Emergence % control),Bluegrass (Poa annua) [8],++ (51-80)
same,Rating at 1 mg/ml (Post-Emergence % control),[9],++ (51-80)
same,Rating at 1 mg/ml (Post-Emergence % control),[10],++ (51-80)
same,Rating at 1 mg/ml (Post-Emergence % control),[11],++++ (91-100)
same,Rating at 1 mg/ml (Post-Emergence % control),[12],++++ (91-100)
same,Rating at 1 mg/ml (Post-Emergence % control),Eclipta (Eclipta alba),++ (51-80)
same,Rating at 1 mg/ml (Post-Emergence % control),[13],++ (51-80)
same,Rating at 1 mg/ml (Post-Emergence % control),[14],++ (51-80)
same,Rating at 1 mg/ml (Post-Emergence % control),[15],++++ (91-100)
same,Rating at 1 mg/ml (Post-Emergence % control),[16],+++ (81-90)
same,Rating at 1 mg/ml (Post-Emergence % control),[17],++ (51-80)
same,Rating at 1 mg/ml (Post-Emergence % control),[18],++++ (91-100)
same,Rating at 1 mg/ml (Post-Emergence % control),[19],++ (51-80)
same,AVG E (visual % damage),crabgrass; 12.5% MBI-005 (0.125 mg/mL),1.3%
same,AVG E (visual % damage),crabgrass; 25% MBI-005 (0.25 mg/mL),1.3%
